{
  "source": "paper PMC9555642",
  "about": "(PLoS ONE, 2022)",
  "key": {"COPD HBEC ALI cultures [1]": {"system": "COPD HBEC ALI cultures", "assay": "RNA analysis (qPCR), TNF challenge", "assay_type": "cell-based, human", "protocol": "TEER and permeability were measured after seven days.\nTo study transcriptional changes, RNA purification was carried out using the RNeasy Plus 96 kit (74192) (Qiagen, Venlo, The Netherlands) according to manufacturer’s protocol. The liquid was collected and frozen at –80°C until further analysis. RNA was quantified and cDNA synthesis was performed according to standard procedures using High-capacity cDNA Reverse Transcription Kit (4368813) (ThermoFisher, Waltham, MA, US). Real-time polymerase chain reaction (qPCR) was done using validated TaqMan® Gene Expression Assays (ThermoFisher, Waltham, MA, US), IL8 (Hs00174103_m1), CCL2 (Hs00234140_m1), CXCL10 (Hs00171042_m1), MMP9 (Hs00957562_m1), IL1B (Hs01555410_m1), MUC5AC (Hs01365616_m1), MUC5B (Hs00861595_m1) with TaqMan Fast Advanced Master Mix (4444557) (Applied Biosystems, Foster City, CA, US). Samples were run in triplicates and analyzed on the QuantStudio^TM 7 Flex Real-Time PCR 384-well System (ThermoFisher Waltham, MA, US). Data was normalized to the housekeeping genes GAPDH (Hs99999905_m1), and RPLP0 (Hs99999902_m1) and delta-delta CT values were plotted (fold change to DMSO)."}, "COPD HBEC ALI cultures [2]": {"system": "COPD HBEC ALI cultures", "assay": "Cigarette smoke extract (CSE) challenge in ALI, FITC-dextran permeability", "assay_type": "cell-based, human", "details": "10 μM pre-treatment 3 days, CSE 1, 3 and 6% for 48 hours, two COPD donors", "protocol": "(§1) The paracellular permeability was determined by using fluorescein isothiocyanate labeled 4kD-dextran (Sigma-Aldrich, St. Louis, USA). 18 hours after addition of 0.2 mg FITC-dextran in 200 μL medium to the apical side of the ALI cultures, the fluorescence in the basolateral medium was measured using PHERAstar FSX (excitation 485 nm and emission 520 nm) (BMG LABTECH, Ortenberg, Germany). The time point was chosen for optimal window in the assays as well as practical reasons and has been kept consistent in between different stimulations throughout this work. Data was plotted as fold-change of 0.1% DMSO control.\nCigarette smoke extract (CSE) experiments were performed using CSE containing media. In short, smoke from five filterless Kentucky research cigarettes, 3R4F (Kentucky Tobacco Research and Development Center, Lexington, USA), was bubbled through 25 ml of PBS at a speed of five minutes per cigarette. The CSE was filtered through a 0.2 μm sterile filter and stored at -80°C until addition to the basolateral side of HBEC ALI cultures from two COPD donors. […] Permeability was measured after 48 hours."}, "COPD HBEC ALI cultures [3]": {"system": "COPD HBEC ALI cultures", "assay": "Mucociliary clearance (bead tracking), TNF challenge", "assay_type": "cell-based, human", "details": "TNF 20 ng/ml, day ten, 3 COPD donors, p = 0.0026", "protocol": "In the TNF (20 ng/ml) challenged cultures, the apical surfaces were washed with pre-warmed PBS the day before addition of 50 μL of CountBright Absolute Counting beads (Invitrogen, Carlsbad, CA, USA) diluted 1:10 000 in PBS with Mg^2+ and Ca^2+. Inserts were transferred to a 12-well glass bottom plate (Cellvis, Mountain View, USA) and monitored in a Zeiss LSM 880 (Carl Zeiss AG, Oberkochen, Germany) at 37°C. Three regions in each well of each condition in three COPD donors were filmed and analyzed. Beads were tracked in the ImageJ software with the Fiji plugin Tracking and the mean velocity of each bead was plotted."}, "COPD HBEC ALI cultures [4]": {"system": "COPD HBEC ALI cultures", "assay": "Whole cigarette smoke (WCS) challenge in ALI, FITC-dextran permeability", "assay_type": "cell-based, human", "details": "10 μM started after first smoke exposure, 4 exposures in 2 days, all concentrations except the highest (1, 0.5 and 0.2 l/min dilution), one COPD donor, exploratory", "protocol": "as §1\nWhole cigarette smoke (WCS) experiments were performed using the Smoking Robot VC 10® S-TYPE (Vitrocell, Waldkirch, Germany). The Vitrocell smoke robot delivers either WCS or humidified air to the apical surface of the cell layers. Briefly, inserts with fully differentiated HBEC in ALI from one COPD donor were placed in the Vitrocell smoke chamber filled with DMEM medium (Thermo Fisher Scientific) and CS or humidified air was puffed onto the apical surface. ISO Puff Standard was used with each CS exposure consisting of two 3R4F Kentucky research cigarettes (one 35 ml puff every 60 seconds). Cells were exposed to WCS four times during two days with a minimum of two hours elapsed between smoke exposures. […] Permeability was measured 20 hours after the last smoke session."}, "HDAC4": {"molecular_target": "T1, HDAC4 (Homo sapiens, UniProt P56524)", "T1 construct": "purchased Eurofins Pharma Discovery Services 2493", "T1 sequence (P56524 whole entry)": "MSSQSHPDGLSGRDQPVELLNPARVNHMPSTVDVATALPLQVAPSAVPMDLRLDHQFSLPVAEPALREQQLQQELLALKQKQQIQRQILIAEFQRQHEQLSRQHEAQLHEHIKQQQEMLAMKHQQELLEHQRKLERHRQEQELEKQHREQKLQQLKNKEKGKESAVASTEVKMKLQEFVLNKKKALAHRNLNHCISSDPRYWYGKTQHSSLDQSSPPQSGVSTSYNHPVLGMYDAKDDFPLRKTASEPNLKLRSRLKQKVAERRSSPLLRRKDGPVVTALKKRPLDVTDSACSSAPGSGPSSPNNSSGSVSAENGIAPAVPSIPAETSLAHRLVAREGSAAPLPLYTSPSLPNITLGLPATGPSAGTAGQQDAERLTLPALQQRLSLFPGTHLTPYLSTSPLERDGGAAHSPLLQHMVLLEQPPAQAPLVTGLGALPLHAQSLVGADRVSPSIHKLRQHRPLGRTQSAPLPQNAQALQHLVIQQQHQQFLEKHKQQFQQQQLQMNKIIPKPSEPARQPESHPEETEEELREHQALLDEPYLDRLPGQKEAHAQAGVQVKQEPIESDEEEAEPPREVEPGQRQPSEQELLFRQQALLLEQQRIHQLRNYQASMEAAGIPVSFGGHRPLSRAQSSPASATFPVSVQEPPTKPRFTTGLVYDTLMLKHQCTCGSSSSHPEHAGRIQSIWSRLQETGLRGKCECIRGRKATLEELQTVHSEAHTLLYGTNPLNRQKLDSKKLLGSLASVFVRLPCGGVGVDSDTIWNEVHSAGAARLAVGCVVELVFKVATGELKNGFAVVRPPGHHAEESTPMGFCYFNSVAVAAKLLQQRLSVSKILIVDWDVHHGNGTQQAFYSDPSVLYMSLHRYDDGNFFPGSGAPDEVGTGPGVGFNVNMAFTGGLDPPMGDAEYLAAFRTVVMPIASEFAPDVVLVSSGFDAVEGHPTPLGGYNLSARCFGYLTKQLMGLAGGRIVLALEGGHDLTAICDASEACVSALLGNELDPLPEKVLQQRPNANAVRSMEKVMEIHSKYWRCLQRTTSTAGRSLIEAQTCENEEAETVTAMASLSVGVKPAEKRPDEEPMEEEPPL", "assay": "HDAC enzymatic activity (Eurofins)", "assay_type": "biochemical", "details": "Class IIA; ACY-1083 mean of two separate measurements, Ricolinostat and Tubastatin A one measurement"}, "Kv4.3": {"molecular_target": "T2, Kv4.3 (Homo sapiens, UniProt Q9UK17)", "T2 construct": "expressed in transfected cells; host or cells: Chinese hamster ovary K1 cell line", "T2 sequence (Q9UK17 1-655)": "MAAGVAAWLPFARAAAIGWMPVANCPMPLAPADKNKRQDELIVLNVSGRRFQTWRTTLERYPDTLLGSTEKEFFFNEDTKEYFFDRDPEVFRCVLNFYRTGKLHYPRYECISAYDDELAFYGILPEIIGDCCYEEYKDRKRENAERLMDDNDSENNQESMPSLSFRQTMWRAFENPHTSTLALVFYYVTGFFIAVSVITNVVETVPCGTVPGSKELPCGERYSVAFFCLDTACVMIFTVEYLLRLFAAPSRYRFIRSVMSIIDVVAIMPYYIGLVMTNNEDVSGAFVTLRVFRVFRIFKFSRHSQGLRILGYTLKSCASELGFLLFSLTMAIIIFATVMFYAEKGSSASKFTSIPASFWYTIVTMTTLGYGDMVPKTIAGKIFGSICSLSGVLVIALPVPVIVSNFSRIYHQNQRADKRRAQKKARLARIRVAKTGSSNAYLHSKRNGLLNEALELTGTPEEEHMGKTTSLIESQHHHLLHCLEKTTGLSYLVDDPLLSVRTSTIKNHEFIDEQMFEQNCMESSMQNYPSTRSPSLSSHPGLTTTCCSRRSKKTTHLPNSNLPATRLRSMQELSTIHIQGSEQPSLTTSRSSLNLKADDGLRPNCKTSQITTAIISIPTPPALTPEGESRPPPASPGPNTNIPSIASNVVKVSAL", "assay": "Cardiovascular ion channel panel, SyncroPatch 384PE patch clamp", "assay_type": "cell-based", "details": "CHO K1 cell line, room temperature, 6 point cumulative assay"}, "[5]": {"details": "high concentrations of TNF, 8 days"}, "[6]": {"details": "unchallenged cells and 5 ng/ml TNF"}},
  "data": [
    {"substance": "ACY-1083", "values": [
      {"measurement": "CXCL10 transcripts", "setting": "COPD HBEC ALI cultures [1]; [5]", "value": "significantly reduced"},
      {"measurement": "IL1B transcripts", "setting": "COPD HBEC ALI cultures [1]; [5]", "value": "significantly reduced"},
      {"measurement": "IL6 transcripts", "setting": "COPD HBEC ALI cultures [1]; [5]", "value": "significantly reduced"},
      {"measurement": "MMP9 transcripts", "setting": "COPD HBEC ALI cultures [1]; [5]", "value": "significantly reduced"},
      {"measurement": "MUC5AC mRNA", "setting": "COPD HBEC ALI cultures [1]; higher concentrations of TNF", "value": "no significant effect"},
      {"measurement": "MUC5B mRNA", "setting": "COPD HBEC ALI cultures [1]; higher concentrations of TNF", "value": "no significant effect"},
      {"measurement": "MUC5AC mRNA", "setting": "COPD HBEC ALI cultures [1]; [6]", "value": "reduced baseline production"},
      {"measurement": "MUC5B mRNA", "setting": "COPD HBEC ALI cultures [1]; [6]", "value": "reduced baseline production"},
      {"measurement": "paracellular permeability after CSE challenge", "setting": "COPD HBEC ALI cultures [2]", "value": "reduction in permeability at all concentrations"},
      {"measurement": "bead velocity (mucociliary clearance)", "setting": "COPD HBEC ALI cultures [3]", "value": "significantly protected from reduction in speed"},
      {"measurement": "paracellular permeability after WCS challenge", "setting": "COPD HBEC ALI cultures [4]", "value": "decrease permeability"},
      {"measurement": "IC50", "setting": "HDAC4", "value": 12.5, "unit": "µM"},
      {"measurement": "activity on Kv4.3", "setting": "Kv4.3", "value": "> 30", "unit": "µM"}
    ]}
  ]
}
